Measurements: US6313104A, “Organoprotective solutions” (Abbott Laboratories, priority 1999, dated 2001)
Entries after “also recorded” stand apart in the source; their conditions may differ.

Legend:
MHC class I [1] = assay: IFN-γ-induced MHC class I expression on PTEC, flow cytometry; assay type: cell-based
Description: (§1) Proximal tubular epithelial cells were cultured according to the methods described by Detrisac et al. (25). In short: PTEC were grown on tissue culture flasks that had been coated with collagen I (Sigma St. Louis Mo.) and Foetel Calf Serum (FCS, from Gibco BRL). The culture medium consisted of Dulbeco's eagle's medium and Ham's medium (both from Gibco BRL) in a 1:1 ratio, supplemented with insulin ([…]), transferrin (5 μg/ml), selenium (5 ng/ml), hydrocortisone (36 ng/ml), triiodothyronine (4 pg/ml) epidermal growth factor (10 ng/ml), and penicillin/streptomycin (5 IE/ml, 5 μg/ml) (all from Sigma). The cell lines were acquired from multiple sources including biopsy tissue pretransplant, allografts unsuitable for transplantation and from grossly normal surgical nephrectomy specimens. Experiments were performed using cells from passages one to four. PTEC were characterized by positive staining for the epithelial membrane antigen (EMA, Dako Glostrup Denmark) and the adenosinedeaminase binding protein (kindly provided by Dr. Dinjens, University Hospital Maastricht, the Netherlands).
(§2) Confluent monolayers of PTEC or HUVEC were trypsinized and seeded in 24-well plates. Upon confluency the cells were stimulated with IFN-γ (Sigma, St. Louis Mo.) for […] in the presence or absence various concentrations of heparinoids in various Heparin (Heparin-Braun®) was purchased from Braun Melsungen (Melsungen, Germany), low molecular weight heparin (Fragmin® P) from Pfrimmer Kabi (Erlangen, Germany), and modified low molecular weight heparins (Knoll AG Ludwigshafen, Germany).
(§3) In some experiments the culture medium was supplemented with sodium chlorate in order to inhibit sulfation of cellbound HSPG. Chlorate was used in concentrations between 50 to 150 mM for 24 hours before addition of IFN-γ and was present during the stimulation period. Sodium chloride was used as osmolarity control. Cultured cells were recovered by brief treatment with trypsin-EDTA for flow cytometry analysis.
(§4) Cells were pooled, divided into two tubes and washed. Isotype matched irrelevant antibodies conjugated to RPE and FITC (from Dako, Glostrup, Denmark) and Cy-5 (from Dianowa, Hamburg, Germany) were added to the first tube which was used as negative control for the FACS settings. Cells from the second tube were labelled with antibodies against MHC class I (RPE-conjugated, W6, 32, Dako), MHC class II (Cy-5-conjugated, CR3/43, Dianova) and ICAM 1 (FITC-conjugated, Dianova) in concentrations according to the instructions of the manufacturer. After incubation for 30 min at 4° C. the cells were washed and analysed by flow cytometry (FACScan, Becton Dickinson); a minimum of 10000 event were analysed. The results are expressed as mean fluorescence intensity (MFI).

MHC class II [2] = assay: IFN-γ-induced MHC class II expression on PTEC, flow cytometry; assay type: cell-based
Description: as §1, §2, §3, §4

ICAM-1 [3] = assay: IFN-γ-induced ICAM-1 expression on PTEC, flow cytometry; assay type: cell-based
Description: as §1, §2, §3, §4

MHC class II [4] = assay: IFN-γ-induced MHC class II expression on HUVEC, flow cytometry; assay type: cell-based, Human; settings: for induction of MHC class II by IFN-γ: HUVEC, 72 hours
Description: (§5) Human umbilical vein endothelial cells were prepared from fresh umbilical cord using the methods described by Jaffe et al (26). Briefly, endothelial cells were isolated from umbilical veins by digestion with collagenase V (Sigma, St. Louis Mo.) for 20 minutes at 37° C. Thereafter the vein was flushes with sterile medium to collect endothelial cells. The culture medium consisted of Medium 199 (Gibco BRL) supplemented with 1% FCS, Endothelial Cell Growth Factor and antibiotics (penicillin-streptomycin). The cells were cultured in 25 cm^2 flasks that had been coated with 1% gelatine (Sigma, St. Louis Mo.).
(§6) All experiments were performed with cells from passage three to six. HUVEC were characterized on the basis of positive staining for factor VIII-related antigen (Dako, High Wycombe, UK) and the endothelial marker EN4 (CD31).
as §2, §4

^125 I-IFN-γ = assay: Dotblot analysis: binding of 125I-IFN-γ to GAG on nitrocellulose; settings: 1 μl of 1 mg/ml on nitrocellulose, 1 hour at 4° C.
Description: Small strips of nitrocellulose membranes were prepared and 1 μl of heparin, fragmin and the carious GAGS (all in a concentration of 1 mg/ml) were applied onto the strip. After air drying, the strips were fixed in 1% glutaraldehyde +0.5% cetylpyridinium chloride to prevent GAG loss and washed in Tris buffer. The non-occupied protein binding sites were blocked with 5% BSA in PBS for 30 min at 37° C. The strips were subsequently incubated with ^125 I IFN-γ for 1 hour at 4° C. in the presence or absence of heparin. Hereafter the strips were extensively washed with Tris buffer and exposed to a Kodak film.

MHC class I [5] = assay: IFN-γ-induced MHC class I expression on HUVEC, flow cytometry; assay type: cell-based, Human; settings: for upregulation of MHC class I by IFN-γ: HUVEC, 72 hours
Description: as §5, §6, §2, §4

ICAM-1 [6] = assay: IFN-γ-induced ICAM-1 expression on HUVEC, flow cytometry; assay type: cell-based, Human; settings: for upregulation of ICAM-1 by IFN-γ: HUVEC, 72 hours
Description: as §5, §6, §2, §4

[7] = 50 ng/ml of IFN-γ, 72 hours, no GAG
[8] = 10 ng/ml IFN-γ, test substance 3 mg/ml
[9] = 100 ng/ml IFN-γ, heparin 0.03 to 3 mg/ml
[10] = PTEC, 10 ng/ml IFN-γ, 72 hours, test substance 0.03 mg/ml
[11] = PTEC, 10 ng/ml IFN-γ, 72 hours, test substance 3 mg/ml
[12] = PTEC, 150 mM NaClO3 from one day before and during stimulation, IFN-γ 0 to 10 ng/ml, 72 hours

IFN-γ: IFN-γ (Sigma), stimulus for MHC and ICAM-1 expression
MHC class I expression on PTEC (MHC class I [1]; [7]): upregulated
MHC class II expression on PTEC (MHC class II [2]; [7]): induced
ICAM-1 expression on PTEC (ICAM-1 [3]; [7]): upregulated

heparin
induction of MHC class II by IFN-γ (MHC class II [4]; [8]): able to inhibit
induction of MHC class II by IFN-γ (MHC class II [4]; [9]): able to inhibit
MHC class II expression in the absence of IFN-γ (MHC class II [4]; unstimulated HUVEC): no influence
binding of 125I-IFN-γ with coincubation of a 3000 fold excess of fluidphase heparin (^125 I-IFN-γ): strongly reduced
binding of 125I-IFN-γ (^125 I-IFN-γ; absence of fluidphase heparin): can bind
MHC class I expression after IFN-γ stimulation (MHC class I [1]; [10]): did not significantly inhibit
upregulation of MHC class I by IFN-γ (MHC class I [1]; [11]): only a marginal influence; also recorded: able to inhibit
upregulation of MHC class I by IFN-γ (MHC class I [1]; PTEC, 100 ng/ml IFN-γ): not influenced
upregulation of MHC class I by IFN-γ (MHC class I [5]; [8]): able to inhibit
upregulation of MHC class I by IFN-γ (MHC class I [5]; [9]): completely abolished
MHC class I expression in the absence of IFN-γ (MHC class I [5]; unstimulated HUVEC): no influence
upregulation of ICAM-1 by IFN-γ (ICAM-1 [6]; [8]): able to inhibit
upregulation of ICAM-1 by IFN-γ (ICAM-1 [6]; [9]): completely abolished
ICAM-1 expression in the absence of IFN-γ (ICAM-1 [6]; unstimulated HUVEC): no influence
MHC class II expression after IFN-γ stimulation (MHC class II [2]; [10]): did not significantly inhibit
induction of MHC class II by IFN-γ (MHC class II [2]; [11]): able to inhibit
induction of MHC class II by IFN-γ (MHC class II [2]; PTEC, 100 ng/ml IFN-γ): able to inhibit
upregulation of ICAM-1 by IFN-γ (ICAM-1 [3]; [10]): significantly inhibited
upregulation of ICAM-1 by IFN-γ (ICAM-1 [3]; [11]): able to inhibit
upregulation of ICAM-1 by IFN-γ (ICAM-1 [3]; PTEC, 100 ng/ml IFN-γ): able to inhibit

[Na+].[O-][Cl+2]([O-])[O-] [NaClO3, sodium chlorate]
modulation of MHC class I expression by IFN-γ in comparison to NaCl treated cultures (MHC class I [1]; [12]): significantly reduced
modulation of MHC class II expression by IFN-γ in comparison to NaCl treated cultures (MHC class II [2]; [12]): significantly reduced
modulation of ICAM-1 expression by IFN-γ in comparison to NaCl treated cultures (ICAM-1 [3]; [12]): significantly reduced
